Structures can show the parent of a compound that is named as a salt. Where two headings read alike, the source gives them in different places.
What was measured:
[1] = Acetic Acid-Writhing Test according to Koster et al., analgetic activity, per os; assay type: in vivo, white mouse (NMRI-Mouse); design: ED50: unit: mg/kg; details: for ED50: substance alone, 30 minutes after giving, linear regression; for factor for the increase in activity of the analgetic action in combination with Flupirtin: compared to analgetic side activity component of the pure antiphlogistic; for minimal effective dose: read-out: lowest analgetically effective dosage; for inhibition in vivo at 3 mg/kg: 3.0 mg/kg per os; for inhibition in vivo at 5 mg/kg: 5.0 mg/kg per os; for inhibition in vivo at 6 mg/kg: 6.0 mg/kg per os; for inhibition in vivo at 10 mg/kg: 10.0 mg/kg per os
Procedure: These investigations were carried out in the Acetic Acid Test (Writhing Test) on the white mouse.
Writhing According to Koster et al; Fed.
(§1) Animal: White Mouse (NMRI-Mouse); Application: per os
Writhing Test According to Koster et al.: Fed.
as §1
The pain reaction is expressed as a characteristic stretching of the animals ("writhing syndrome") which persists in irregular time intervals for a long period of time after the injection of the acetic acid. The dosage dependent suppression of the frequency of the stretching motion compared to an untreated control group is expressed in percent as analgetic effect. The evaluation is carried out by determination of the ED50 (Method of Linear Regression).
The acetic acid test is marked by the fact that not only is there detectable the effect of strong, central acting analgetics but also preponderantly peripherally acting analgetics-antipyretics and antiphlogistically active pharmaceuticals such as phenyl butazone, Indometacin and others. Therewith the effect in this procedure refers to a peripheral component of the analgesic.

[2] = antiphlogistic alone, per os, mouse; cited from earlier work
[3] = Randall-Selitto Test, inflammation pain, per os; assay type: in vivo, albino rat (Sprague-Dawley); details: for ED50: Rattus norvegicus, po, 0.5 h
Procedure: Randall-Selitto-Test According to Randall, Selitto, Arch. int.
Animal: Albino-Rat (Sprague-Dawley); Application: per os
Sucker, Fuchs, Speiser, Pharmazeutische Technologie, Thieme-Verlag, Stuttgart, 1978. Short Description of the Pharmacological Test Methods Mentioned in the Application Randall-Selitto-Test (Inflammation Pain on the Rat)
In accordance with the method of Randall and Selitto (L. O. Randall, J. J. Selitto, Arch. int. Pharmacodyn., Volume 111, pages 409-418, 1957) rats were injected subplantarly with […] of a 20% (in dimineralized water) brewer's yeast suspension in the right hind paw. 21/2 hours later the test materials were dispensed and 30 minutes later the swelling pain measured with an Algesiemeter as pressure (in grams) on the inflamed paw (apparatus of Ugo Basile, Milan, Italy). As criteria there are considered the defensive reaction of the animals drawing the paw away and/or freeing themselves from the grip of the experimenters. The effect of the material was determined from the increase of the swelling pain compared to the untreated control group. The experimental procedure different from the original method in that the materials were applied 21/2 hours after the setting of edema and not simultaneously therewith. In this way there should be prevented the development of edema, being checked by a possible antiphlogistic action and the analgesy superimposed or simulated.
The ED50 was determined by means of the method of linear regression.

[4] = Bradykinin-Edema Test, antiphlogistic activity, per os; assay type: in vivo, albino rat (Sprague-Dawley); details: alone; for ED50: per os, printed in words: no ED50 defineable
Procedure: Bradykinin-Edema-Test Relying On and Modification of the Method of
Morsdorf et al (Arch. int. Pharmacodyn. 192,111-127 (1971). Animal:
Albino-rat (Sprague-Dawley):
Relying on the modification of the method of Morsdorf et al (Arch. int. Pharmacodyn. Volume 192, pages 111-127 (1971)) male rats received subplantarly in the right hind paw an injection of a 1% carrageenin solution (Carrageenin, Type IV, Sigma C-3889). One hour and four hours later there was determined the volume of the paw. To measure the volume there was used a volume meter (Rhema-Labortechnik Company, D-6238 Hofheim, Type 2060). Directly after the first measurement the test substance was dispensed by means of a gullet stomach catheter. There was calculated the increase in the swelling of the paw in the second measurement compared to the first measurement in absolute values (ml). The evaluation included the determination of the percent average value of the difference of the edema volumes one and four hours after receiving the inflammatory solution. The edema inhibiting action was calculated in percent from the edema volume measured by water displacement in comparison to the edema volume of the untreated inflammed control group.
As the single change in comparison to the Carrageenin-Edema Test in place of Carrageenin there was injected subplantarly Bradykinin (Sigma B 3259) 0.01 mg/animal in 0.1 ml of a 0.9% sodium chloride solution.

[5] = Ulcerogenic effect (stomach mucosa erosion) 24 hours after single oral dispensation; assay type: in vivo, albino rat (Sprague-Dawley); details: 24 mg/kg Diclofenac alone per os
Procedure: Testing of Ulcerogenic Effect Relying On the Method of Jahn and Adrian (Arzneimittelforschung, Volume 19 (1969) pages 36-52)
The experimental animals are male albino rats which are maintained under the usual conditions at 21°-22° C. After 48 hours of qualified feeding the test materials were dispensed perorally an increasing dosages. The animals were killed 24 hours later and the stomachs investigated for ulcerogenic changes according to the method of Munchow, Arzneimittelforschung, Volume 4 (1954), pages 341-344. (The size of the ulcers formed is measured are classified according to Munchow.)

[6] = Mus musculus, po, 0.5 h, per os
[7] = Mus musculus, po, read-out: Activity in %
[8] = alone, per os, 30 minutes after giving, linear regression, read-out: ED50
[9] = Mus musculus, po, 0.5 h, per os, read-out: ED50
[10] = Mus musculus, po, alone, 4.0 mg/kg per os, read-out: Activity in %

CC(=O)Oc1ccccc1C(=O)O [Acetylsalicylic Acid, acetylsalicylic acid]
ED50 [1, 6]: 149 mg/kg | inhibition in vivo at 25 mg/kg [1, 7]: 11% | inhibition in vivo at 50 mg/kg [1, 7]: 30.1% | inhibition in vivo at 75 mg/kg [1, 7]: 39% | inhibition in vivo at 100 mg/kg [1, 7]: 41.1% | inhibition in vivo at 150 mg/kg [1, 7]: 43.2% | inhibition in vivo at 200 mg/kg [1, 7]: 59.6% | inhibition in vivo at 400 mg/kg [1, 7]: 71.2% | factor for the increase in activity of the analgetic action in combination with Flupirtin [1]: 2-15 | LD50 [2]: 815 mg/kg

O=C(O)Cc1ccccc1Nc1c(Cl)cccc1Cl [Diclofenac]
ED50 [1, 6]: 12 mg/kg | inhibition in vivo at 3.9 mg/kg [1, 7]: 33.3% | inhibition in vivo at 7.8 mg/kg [1, 7]: 50% | inhibition in vivo at 15.6 mg/kg [1, 7]: 45.8% | inhibition in vivo at 31.25 mg/kg [1, 7]: 66% | inhibition in vivo at 62.5 mg/kg [1, 7]: 67.4% | inhibition in vivo at 125 mg/kg [1, 7]: 91.7% | minimal effective dose ([1]; Mus musculus, po): 3.9 mg/kg | ED50 ([1]; per os, 30 min): 12.1 mg/kg | ED50 [3, 8]: 2.95 mg/kg | Activity in % ([3]; alone, 1.0 mg/kg per os): 20.99% | Activity in % ([3]; alone, 3.0 mg/kg per os): 32.60% | Activity in % ([3]; alone, 10.0 mg/kg per os): 100.55% | Activity in % ([3]; alone, 30.0 mg/kg per os): 135.36% | Activity in % (- = inhibiting) ([4]; 1.0 mg/kg per os): +2.9% | Activity in % (- = inhibiting) ([4]; 3.0 mg/kg per os): +8.6% | Activity in % (- = inhibiting) ([4]; 9.0 mg/kg per os): -31.4% | Activity in % (- = inhibiting) ([4]; 27.0 mg/kg per os): -45.7% | ED50 [4]: No ED50 | ulcerogenic effect (stomach mucosa erosion) [5]: erosion of the stomach mucosa

CCOC(=O)Nc1ccc(NCc2ccc(F)cc2)nc1N [Flupirtin (Gluconate)]
ED50 [1, 6]: 43.9 mg/kg | inhibition in vivo at 0.56 mg/kg [1, 7]: 19.2% | inhibition in vivo at 1.12 mg/kg [1, 7]: 28% | inhibition in vivo at 2.24 mg/kg [1, 7]: 37.6% | inhibition in vivo at 4.47 mg/kg [1, 7]: 46.4% | inhibition in vivo at 8.93 mg/kg [1, 7]: 38.4% | inhibition in vivo at 17.85 mg/kg [1, 7]: 22.4% | inhibition in vivo at 35.7 mg/kg [1, 7]: 61.6%

CCOC(=O)Nc1ccc(NCc2ccc(F)cc2)nc1N [Flupirtin (Hydrochloride)]
ED50 [3]: 30.9 mg/kg | Activity in % ([3]; alone, 10.0 mg/kg per os): -8.3% | Activity in % ([3]; alone, 20.0 mg/kg per os): 23.2% | Activity in % ([3]; alone, 30.0 mg/kg per os): 45.8% | Activity in % ([3]; alone, 40.0 mg/kg per os): 67.5% | Activity in % (- = inhibiting) ([4]; 5.0 mg/kg per os): +4.6% | Activity in % (- = inhibiting) ([4]; 10.0 mg/kg per os): -25.0% | Activity in % (- = inhibiting) ([4]; 20.0 mg/kg per os): -13.6% | Activity in % (- = inhibiting) ([4]; 30.0 mg/kg per os): -2.3% | ED50 [4]: no ED50

CCOC(=O)Nc1ccc(NCc2ccc(F)cc2)nc1N [Flupirtin, 2-amino-3-carbethoxyamino-6-(fluoro-benzylamino)-pyridine]
ED50 [1, 9]: 44 mg/kg | minimal effective dose ([1]; Mus musculus, po, alone, per os): 2.24 mg/kg

COc1ccc2c(c1)c(CC(=O)N[C@@H](C=O)[C@@H](O)[C@H](O)[C@H](O)CO)c(C)n2C(=O)c1ccc(Cl)cc1 [Glucametacin]
factor for the increase in activity of the analgetic action in combination with Flupirtin [1]: 2-15

COc1ccc2c(c1)c(CC(=O)O)c(C)n2C(=O)c1ccc(Cl)cc1 [Indometacin]
ED50 [1, 6]: 4.3 mg/kg | inhibition in vivo at 2 mg/kg [1, 7]: 17.3% | inhibition in vivo at 4 mg/kg [1, 7]: 50% | inhibition in vivo at 8 mg/kg [1, 7]: 86.3% | inhibition in vivo at 16 mg/kg [1, 7]: 82.1% | factor for the increase in activity of the analgetic action in combination with Flupirtin [1]: 2-15 | ED50 [3, 8]: 2.77 mg/kg | Activity in % ([3]; alone, 1.0 mg/kg per os): 12.3% | Activity in % ([3]; alone, 2.0 mg/kg per os): 22.05% | Activity in % ([3]; alone, 4.0 mg/kg per os): 58.97% | Activity in % ([3]; alone, 8.0 mg/kg per os): 114.87% | Activity in % ([3]; alone, 16.0 mg/kg per os): 127.18% | LD50 [2]: 21 mg/kg

Cc1cc(NC(=O)C2=C(O)c3ccccc3S(=O)(=O)N2C)no1 [Isoxicam]
ED50 [1, 9]: 6.6 mg/kg | inhibition in vivo at 3 mg/kg ([1]; Mus musculus, po, alone): 10.1% | inhibition in vivo at 4 mg/kg [1, 10]: 30.2% | inhibition in vivo at 5 mg/kg ([1]; Mus musculus, po, alone): 36.7% | inhibition in vivo at 6 mg/kg ([1]; Mus musculus, po, alone): 46% | inhibition in vivo at 7 mg/kg ([1]; Mus musculus, po, alone, 7.0 mg/kg per os): 51.1% | inhibition in vivo at 8 mg/kg ([1]; Mus musculus, po, alone, 8.0 mg/kg per os, read-out: Activity in %): 62.6% | inhibition in vivo at 10 mg/kg ([1]; Mus musculus, po, alone): 66.2% | factor for the increase in activity of the analgetic action in combination with Flupirtin [1]: 2-15

COc1ccc2cc([C@H](C)C(=O)O)ccc2c1 [Naproxen]
inhibition in vivo at 0.38 mg/kg ([1]; Mus musculus, po, alone, 0.38 mg/kg per os): 21.7% | inhibition in vivo at 0.75 mg/kg ([1]; Mus musculus, po, alone, 0.75 mg/kg per os): 42% | inhibition in vivo at 1.5 mg/kg ([1]; Mus musculus, po, alone, 1.5 mg/kg per os): 43.4% | inhibition in vivo at 3 mg/kg ([1]; Mus musculus, po, alone): 53.8% | inhibition in vivo at 6 mg/kg ([1]; Mus musculus, po, alone): 70% | inhibition in vivo at 12 mg/kg ([1]; Mus musculus, po, alone, 12.0 mg/kg per os): 74.1% | inhibition in vivo at 24 mg/kg ([1]; Mus musculus, po, alone, 24.0 mg/kg per os): 54.5% | factor for the increase in activity of the analgetic action in combination with Flupirtin [1]: 2-15

CN1C(C(=O)Nc2ccccn2)=C(O)c2ccccc2S1(=O)=O [Piroxicam]
ED50 [1, 9]: 3.46 mg/kg | inhibition in vivo at 1 mg/kg ([1]; Mus musculus, po, alone, 1.0 mg/kg per os): 38.2% | inhibition in vivo at 3 mg/kg ([1]; Mus musculus, po, alone): 40% | inhibition in vivo at 4 mg/kg [1, 10]: 53.6% | inhibition in vivo at 5 mg/kg ([1]; Mus musculus, po, alone): 61.8% | inhibition in vivo at 10 mg/kg ([1]; Mus musculus, po, alone): 70.9% | inhibition in vivo at 20 mg/kg ([1]; Mus musculus, po, alone, 20.0 mg/kg per os): 49.1% | factor for the increase in activity of the analgetic action in combination with Flupirtin [1]: 2-15 | LD50 [2]: 350 mg/kg

CC1=C(CC(=O)O)c2cc(F)ccc2/C1=C\c1ccc([S+](C)[O-])cc1 (stereo not drawn) [Sulindac]
ED50 [1, 9]: 2.3 mg/kg | inhibition in vivo at 0.47 mg/kg [1, 7]: 29.6% | inhibition in vivo at 0.94 mg/kg [1, 7]: 44.6% | inhibition in vivo at 1.88 mg/kg [1, 7]: 49.7% | inhibition in vivo at 3.75 mg/kg [1, 7]: 56% | inhibition in vivo at 7.5 mg/kg [1, 7]: 61% | inhibition in vivo at 15 mg/kg [1, 7]: 71.1% | inhibition in vivo at 30 mg/kg [1, 7]: 72.3% | factor for the increase in activity of the analgetic action in combination with Flupirtin [1]: 2-15
